Experimental data taken from US8852648B2, “Delivery of biologically-active agents using volatile, hydrophobic solvents” (Rochal Industries, LLP, priority 2012, dated 2014).
“Also recorded” adds a separate entry of the source. Counter-ions that a name gives are not always drawn. Like-named read-outs stand apart in the source and are kept apart here.

Experiments:
[1] = in water; cited from earlier work
[2] = in water solution; cited from earlier work
[3] = system: mammalian cells such as fibroblasts, kidney cells, and cancer cells; settings: in water solution; cited from earlier work
[4] = system: Pseudomonas aeruginosa, ATCC 27853; test: Zone of inhibition, antimicrobials in AOT and Cavilon, TSA plates; format: cell-based; settings: for ZOI 24 h / ZOI 48 h / ZOI 72 h: agent with AOT in Cavilon polymer, HMDS/ISO, 0.1 mL per cylinder, Neosporin 100 μL; for ZOI behaviour in words: with AOT in Cavilon polymer, over three days
Description: (§1) All microbiological testing was done by INCELL Corporation, San Antonio, Tex. All zones of inhibition data were measured in mm.
(§2) The zones of inhibition testing for methicillin-resistant Staphylococcus aureus and Pseudomonas aeruginosa were performed as described below. The bacteria were purchased from ATCC and expanded in Tryptic soy broth overnight. Each of the bacteria cultures was then spread onto Tryptic soy agar (TSA) plates. Sterile cloning cylinders containing the biologically-active agent in a volatile, hydrophobic solvent (0.1 mL per cylinder) were placed on the TSA plates and allowed to air dry for 1 h at room temperature. Neosporin was used as a positive control. The TSA plates were observed and photographed after 24 h, 48 h, and 72 h. Images were used to measure zone of inhibition or areas of clearing surrounding the delivered material.
(§3) The polymer substrate chosen for the sustained release studies of biologically-active antimicrobial over time was Cavilon. The Cavilon solution is composed of a proprietary acrylate polymer and a smaller amount of polyphenylmethylsiloxane in HMDS and ISO. This was used as a negative control for all zone of inhibition studies (Tables 8-10).

[5] = system: methicillin-resistant Staphylococcus aureus, ATCC 700787; test: as above; format: cell-based
Description: as §1, §2, §3

[6] = system: Gram negative bacteria such as Pseudomonas aeruginosa; settings: reported, G. N. Kern; cited from earlier work
albino rabbits = test: Animal skin-irritation study, Draize scoring; format: in vivo, rabbit; settings: Cavilon solution containing 0.5 wt % AOT
Description: Another concern with the use of a reverse emulsion surfactant for its application to mammalian skin is its potential to cause skin irritation. It has been reported that in water solution AOT can be irritating to skin (M. Changez and M. Varshney, Drug Development and Industrial Pharmacy, 26(5), 507-512 (2000)). To test if AOT is skin-irritating when used in a volatile, hydrophobic solvent with the presence of polymer, an animal skin-irritation study was conducted by Toxikon Corporation, Cavilon solution containing 0.5 wt % AOT was examined, and Cavilon solution was used as a negative control.
Three albino rabbits were used for the skin irritation study. The application sites were prepared by clipping the skin of the trunk free of hair within 24 h before application of the test and control substances. The animals were treated by applying an AOT-containing Cavilon solution and the Cavilon negative control (0.5 mL) directly onto skin over a skin area of approximate 6 cm^2. The test solution was applied to the skin on the left side of the spine and the control solution was applied to the skin on the right side of the spine. The AOT solution and the negative control were each applied sequentially to three sites, and observed at 6, 24, 48, and 72 h for signs of erythema and edema. Observations were scored according to the Draize Scale for Scoring. […]

Candida albicans = settings: reported, G. N. Kern; cited from earlier work
[7] = system: Gram positive bacteria such as Staphylococcus aureus; settings: reported, G. N. Kern; cited from earlier work
[8] = system: L929 mouse fibroblast cell; test: Cytotoxicity testing, agar overlay with neutral red; settings: for Zone Size / Grade (biological reactivity): 0.05 wt % AOT in Cavilon; for Zone Size: applied to agar surface; for Grade (biological reactivity): scale Grade 0 to Grade 4
Description: Also of consideration for application to animal and human skin is the potential of toxicity to mammalian cells for reverse emulsion surfactants such as AOT. […] […] Cavilon solution without AOT was used as a negative control.
The biological reactivity of L929 mouse fibroblast cell in response to the AOT Cavilon solution was determined. The monolayer of fibroblasts was cultured in an agar plate, and the cell viability was evaluated using a vital dye (neutral red). The AOT Cavilon solution was applied directly to the surface of the agar. Positive (Buna-N-Rubber) and negative (Negative Control Plastic, Cavilon solution) control articles were prepared to verify the proper functioning of the test system. The cultures were incubated at 37±1° C., in a humidified atmosphere containing 5±1% carbon dioxide. Zone of inhibition was measured, and biological reactivity (cellular degeneration and malformation) was rated on a scale from Grade 0 (No reactivity) to Grade 4 (Severe reactivity) at 24 and 48 hours. The experiment was run in triplicate.

[9] = system: Candida albicans, ATCC 10231; test: Zone of inhibition, antimicrobials in AOT and Cavilon, TSA plates; format: cell-based; settings: for ZOI 24 h / ZOI 48 h / ZOI 72 h: agent with AOT in Cavilon polymer, HMDS/ISO, 0.1 mL per cylinder, Roccal 1 %
Description: as §1
The zones of inhibition testing was also performed with Candida albicans, purchased from ATCC and expanded in Tryptic soy broth overnight. This fungi culture was diluted to 0.1 OD 600 units and spread onto TSA plates. Sterile cloning cylinders were placed on the TSA plates, charged with the biologically-active agent in a volatile, hydrophobic solvent (0.1 mL per cylinder) and allowed to air dry for 1 h at room temperature. A 1% Roccal solution was used as a positive control. The TSA plates were observed and photographed after 24 h, 48 h, and 72 h. Images were used to measure zone of inhibition or areas of clearing surrounding the delivered material.
as §3

[10] = Solubility in non-polar hydrophobic solvents ISO and HMDS; format: physicochemical; settings: without reverse emulsion surfactant
Excerpt: For all formulations in the following Examples, each biologically-active agent was inherently insoluble in the non-polar, hydrophobic solvents tested, namely, isooctane (ISO) and hexamethyldisiloxane (HMDS). Solubility occurred in the presence of a reverse emulsion surfactant, with or without the presence of added water, to give optically clear, homogeneous solutions. Since the concentrations of the biologically-active agents (Active) were considerably less than that of the solvent used, the data in the Tables pertaining to all ingredients were rounded-off to the next highest number.

[11] = 24 h, agent with AOT in Cavilon polymer, HMDS/ISO, 0.1 mL per cylinder, Neosporin 100 μL
[12] = 48 h, agent with AOT in Cavilon polymer, HMDS/ISO, 0.1 mL per cylinder, Neosporin 100 μL
[13] = 72 h, agent with AOT in Cavilon polymer, HMDS/ISO, 0.1 mL per cylinder, Neosporin 100 μL
[14] = with AOT in Cavilon polymer, over three days

SMILES: CCCCC(CC)CNC(=N)NC(=N)NCCCCCCNC(=N)NC(=N)NCC(CC)CCCC (stereo not shown) [ALEX, 1,1′-hexamethylenebis[5-(2-ethylhexyl)biguanide]dihydrochloride]
- water solubility [1]: 0.1%

SMILES: CCCCC(CC)COC(=O)CC(C(=O)OCC(CC)CCCC)S(=O)(=O)[O-].[Na+] (stereo not shown) [AOT, sodium bis(2-ethylhexyl)sulfosuccinate]
- skin irritation, in words [2]: irritating
- cytotoxic concentration [3]: 0.002 wt %
- ZOI 24 h [4]: 8.18 mm
- ZOI 48 h [4]: 8.22 mm
- ZOI 72 h [4]: 11.2 mm
- ZOI behaviour in words [4]: considerably more effective against Pseudomonas aeruginosa than Neosporin; also recorded: highly effective
- ZOI 24 h [5]: 5.34 mm
- ZOI 48 h [5]: 6.3 mm
- ZOI 72 h [5]: 5.32 mm
- ZOI behaviour in words [5]: active
- antibacterial activity, in words [6]: inactive
- signs of erythema or edema (albino rabbits; 0.5 mL on skin, observed at 6, 24, 48, and 72 h): None of the AOT solution sites presented any signs of erythema or edema
- skin irritation classification (albino rabbits; Draize Scale): non-irritant
- antifungal activity, in words (Candida albicans): effective
- antibacterial activity, in words [7]: active
- Zone Size ([8]; 24 hours): 0 cm
- Grade (biological reactivity) ([8]; 24 hours): 0
- Zone Size ([8]; 48 hours): 0 cm
- Grade (biological reactivity) ([8]; 48 hours): 0
- toxicity to mammalian cells, in words ([8]; AOT Cavilon solution, 0.5 wt % AOT): not toxic
- ZOI 24 h [9]: 12.7 mm
- ZOI 48 h [9]: 12.4 mm
- ZOI 72 h [9]: 13.3 mm

SMILES: O=[N+]([O-])[O-].[Ag+] [AgNO3, Silver Nitrate]
- ZOI 24 h [5, 11]: 8.16 mm
- ZOI 48 h [5, 12]: 9 mm
- ZOI 72 h [5, 13]: 8.18 mm
- ZOI behaviour in words [5, 14]: highly effective

SMILES: N=C(NCCCCCCNC(=N)NC(=N)Nc1ccc(Cl)cc1)NC(=N)Nc1ccc(Cl)cc1.O=C(O)[C@H](O)[C@@H](O)[C@H](O)[C@H](O)CO.O=C(O)[C@H](O)[C@@H](O)[C@H](O)[C@H](O)CO [CHG, Chlorhexidine Digluconate]
- ZOI 24 h [4]: 2.77 mm
- ZOI 48 h [4]: 0 mm
- ZOI 72 h [4]: 0 mm
- ZOI behaviour in words [4]: less effective
- ZOI 24 h [5, 11]: 11.53 mm
- ZOI 48 h [5, 12]: 11.03 mm
- ZOI 72 h [5, 13]: 11.67 mm
- ZOI behaviour in words [5, 14]: exceptional results
- water solubility [1]: 20%

SMILES: Clc1ccc(COC(Cn2ccnc2)c2ccc(Cl)cc2Cl)c(Cl)c1 (stereo not shown) [MICON, Miconazole Nitrate]
- ZOI 24 h [9]: 16.5 mm
- ZOI 48 h [9]: 14.9 mm
- ZOI 72 h [9]: 15 mm
- ZOI behaviour in words [9, 14]: superior to that of AOT by itself and PHMB with AOT

SMILES: NC[C@@H]1O[C@H](O[C@@H]2[C@@H](CO)OC(O[C@@H]3[C@@H](O)[C@H](N)C[C@H](N)[C@H]3OC3O[C@H](CN)[C@@H](O)[C@H](O)[C@H]3N)[C@@H]2O)[C@H](N)[C@@H](O)[C@@H]1O (stereo partly shown) [NEO, Neomycin Trisulfate]
- ZOI 24 h [4]: 7.43 mm
- ZOI 48 h [4]: 6.41 mm
- ZOI 72 h [4]: 7.61 mm
- ZOI 24 h [5, 11]: 8.95 mm
- ZOI 48 h [5, 12]: 8.94 mm
- ZOI 72 h [5, 13]: 9.71 mm
- ZOI behaviour in words [5, 14]: highly effective

SMILES: CCCCCCCCCCCC(=O)[O-].[Na+] [SL, sodium dodecanoate]
- solubility in isooctane (ISO) and hexamethyldisiloxane (HMDS) [10]: insoluble
